These results are taken from ChEMBL document CHEMBL1150623, “Two new triterpene esters from the twigs of Brachylaena ramiflora from the Madagascar rainforest” (J Nat Prod, 2002).

The test system of the assay is A2780. The assay can be described thus: Cytotoxicity against human A2780 cells. The format is functional, cell-based.

Values after ≈ are worked out from the molar mass of the structure shown. Numbered stars: 1 amine (or outer) side, 2 acyl side, 3 side chain; on linkers, the order of the positions; unused ones are H or OH. Bridge positions count the residues as written; N and C are the ends. Square brackets hold non-standard residues; d marks the D form. Peptide text beside a SMILES is read from it. I, II: the chains in the order shown. Actinocin(1to9) = Cc1c2oc3c(C)ccc(C(=O)[*:2])c3nc-2c(C(=O)[*:1])c(N)c1=O; NMeV = CN[C@H](C(=O)O)C(C)C; Sar = CNCC(=O)O

On to `CCCCCCCCCCCCCCCC(=O)O[C@H]1CC[C@]2(C)[C@H]3CC=C4[C@@H]5CC(C)(C)CC[C@]5(C)CC[C@@]4(C)[C@]3(C)CC[C@H]2C1(C)C`, for which the half-inhibitory concentration (IC50) turned out to be 13.4 µg/mL (≈ 20.1 µM).

In the case of `CCCCCCCCCCCCCCCC(=O)O[C@H]1CC[C@]2(C)[C@H]3CC=C4[C@@H]5[C@@H](C)[C@H](C)CC[C@@]5(C)CC[C@@]4(C)[C@]3(C)CC[C@H]2C1(C)C`, the IC50 was 15.4 µg/mL (≈ 23.2 µM).

The molecule `Cc1c2oc3c(C)ccc(C(=O)N[C@@H]4C(=O)N[C@H](C(C)C)C(=O)N5CCC[C@H]5C(=O)N(C)CC(=O)N(C)[C@@H](C(C)C)C(=O)O[C@@H]4C)c3nc-2c(C(=O)N[C@@H]2C(=O)N[C@H](C(C)C)C(=O)N3CCC[C@H]3C(=O)N(C)CC(=O)N(C)[C@@H](C(C)C)C(=O)O[C@@H]2C)c(N)c1=O` [DACTINOMYCIN] (I: T[dV]P[Sar][NMeV] / II: T[dV]P[Sar][NMeV]; ester I:1-I:C, II:1-II:C; linker I:N-II:N via Actinocin(1to9)) had an IC50 of 0.002 µg/mL (≈ 0.00159 µM).

Turning to `C=C(C)[C@H]1CC[C@]2(C)C3CC[C@@H]4[C@@]5(C)CC[C@H](OC(=O)CCCCCCCCCCCCCCC)C(C)(C)[C@@H]5CC[C@@]4(C)[C@]3(C)CC[C@@H]12` (stereo partly drawn) [HOPENYL PALMITATE], it took 11.6 µg/mL (≈ 17.4 µM) to reach half-maximal inhibition (IC50).

In turn, `CCCCCCCCCCCCCCCC(=O)O[C@H]1CC[C@]2(C)[C@H]3CC=C4[C@@H]5CCCC(C)(C)[C@@]5(C)CC[C@@]4(C)[C@]3(C)CC[C@H]2C1(C)C` [KAIRATENYL PALMITATE] displayed a concentration for half-maximal inhibition (IC50) of 10 µg/mL (≈ 15 µM).

`C=C(C)[C@@H]1CC[C@]2(C)CC[C@]3(C)[C@H](CC[C@@H]4[C@@]5(C)CC[C@H](OC(C)=O)C(C)(C)[C@@H]5CC[C@]43C)[C@@H]12` [LUPENYL ACETATE]: the midpoint of inhibition, the IC50, lay at 15 µg/mL.

Regarding `C=C(C)[C@@H]1CC[C@]2(C)CC[C@]3(C)[C@H](CC[C@@H]4[C@@]5(C)CC[C@H](O)C(C)(C)[C@@H]5CC[C@]43C)[C@@H]12` [LUPEOL], the IC50 came out at 16.2 µg/mL (≈ 38 µM).

`CC(=O)O[C@H]1CC[C@]2(C)[C@H]3CC=C4[C@@H]5CC(C)(C)CC[C@]5(C)CC[C@@]4(C)[C@]3(C)CC[C@H]2C1(C)C` [beta-AMYRIN ACETATE]: the IC50 stood at 12.1 µg/mL.
